Our source for the IC50 and Ki values is US20080076750A1, “Azetidinone Derivatives and Methods of Use Thereof” (priority 2006, published 2008).

Where two headings read alike, the source gives them in different places.

Assay [1] addresses T1, TRPV1 (Homo sapiens, UniProt Q8NER1).
T1 construct: expressed in transfected cells; host or cells: HEK293-Tet-OFF
Nature of the assay: TRPV1 Screening Assay (FLIPR). In kind it is cell-based. To be noted: HEK293-TetOFF-TRPV1, PMA, read-out: VR1 flipr PMA IC50.

Assay [2] concerns the target T1, TRPV1. In words: TRPV1 Screening Assay (FLIPR). Type of assay: cell-based. To be noted: HEK293-TetOFF-TRPV1, capsaicin (50 nM final), read-out: VR1 flipr CAPSAICIN IC50. An excerpt: • 1) Cell line: HEK293-Tet^OFF-TRPV1 • 2) Media: MEM (Invitrogen) • 3) 10% Tet-FBS (Clontech #8630-1) • 4) Fungizone (Gibco #15290-018 (100×)) • 5) Penn/Strep (Gibco #15140-122 (100×)) • 6) Geneticin (Gibco #10131-027 (100×)) • 7) Hygromycin (Clontech #8057-1) • 8) Doxycycline (Clontech #8634-1) • 9) Trypsin/EDTA (Gibco #25200-056) • 10) 100 mm cell culture plates (Falcon #3003) • 11) 96-well poly-D-lysine plates (Fisher #08-774-256) • 12) Hank's Balanced Salt Solution (HBSS) (GIBCO #14025-092) • 13) HEPES Buffer (GIBCO #15630-080) • 14) 30% BSA (Research Organics #1334A) • 15) Probenecid (Sigma P-8761) • 16) Fluo-4, AM (50 μg) (Molecular robes F-23917) • 17) Pluronic F-127 20% (Molecular Probes P-3000). • 18) capsazepine (Sigma C-191) • 19) capsaicin (Sigma M-2028) • 20) compound plates (NUNC #442587) • 21) black pipet tips 96-well FLIPR (Robbins Scientific 1043-24-0) • 22) Additional reagents available from Fisher: methanol, DMSO, NaOH Reagent Preparation: 1) Cells: HEK293-Tet^OFF-TRPV11
• and Doxycycline 2.5 μg/mL final (from a 1000× stock in PBS) • Cells must be fed and/or split every 2-3 days (to maintain transcriptional repression with Doxycycline). • Must be split no more than 1:5 (50-75% confluency) to maintain growth and viability. • Grown on regular tissue culture plates (e.g. Falcon 3003-100 mm) • SpliT-cells via Trypsin/EDTA: incubate with trypsin at room temperature no longer than 5 min (HEK293 cells have a tendency to ball up if over trypsinized). • Two days prior to assay, the cells are split into 96-well plates in cell media in the absence of doxycycline at a concentration of 40,000 cells/well in a volume of 200 μL, 2) FLIPR buffer is prepared fresh:
Add 5 mL of Probenecid Solution, prepared as follows: 710 mg of probenecid (Sigma P-8761) is solubilized in 5 mL of 1 N NaOH, 5 mL of above buffer s added for final volume of 10 mL (of which 5 mL goes back into FLIPR buffer)
Combine 42 μL of dye mixture with 11 mL of FLIPR buffer/96-well plate.
Stock solution of 0.1 M capsaicin is prepared in MeOH (50 mg+1.6 mL MeOH). Store 50 μL aliquots at −80° C.
For assay: • a) Dilute stock by adding 0.8 μL into 1 mL of MeOH (final=80 μM). • b) Add 50 μL of diluted stock to 20 mL of FLIPR buffer (final=0.2 μM) • c) Agonist solution is added 150 μL/well to 96-well plate. • d) Final agonist concentration on cells will be 50 nM. […] Laser is adjusted upwards for an average signal≧10,000/well and less than 10% variability. 7) Compound addition conditions are as follows: • FLIPR setup (dual sequence parameters): • Sequence 1: • First interval 1 sec/60 counts • Second interval 6 sec/50 counts • Fluid addition=50 μL • Pipettor=110 μL • Dispense Speed=30 μL/sec • Sequence 2: • Second interval 1 sec/60 counts • Second interval 6 sec/40 counts • Fluid addition=50 μL • Pipettor height=140 μL • Dispense Speed=50 μL/sec Data Analysis:
1) Data from both additions is reported as Max-Min for each well

For another assay, the target named is T2, human NPC1L1 (Homo sapiens, UniProt Q9UHC9).
T2 construct: expressed in transfected cells; host or cells: HEK-293 (geneticin selection)
T2 sequence (Q9UHC9 22-1359): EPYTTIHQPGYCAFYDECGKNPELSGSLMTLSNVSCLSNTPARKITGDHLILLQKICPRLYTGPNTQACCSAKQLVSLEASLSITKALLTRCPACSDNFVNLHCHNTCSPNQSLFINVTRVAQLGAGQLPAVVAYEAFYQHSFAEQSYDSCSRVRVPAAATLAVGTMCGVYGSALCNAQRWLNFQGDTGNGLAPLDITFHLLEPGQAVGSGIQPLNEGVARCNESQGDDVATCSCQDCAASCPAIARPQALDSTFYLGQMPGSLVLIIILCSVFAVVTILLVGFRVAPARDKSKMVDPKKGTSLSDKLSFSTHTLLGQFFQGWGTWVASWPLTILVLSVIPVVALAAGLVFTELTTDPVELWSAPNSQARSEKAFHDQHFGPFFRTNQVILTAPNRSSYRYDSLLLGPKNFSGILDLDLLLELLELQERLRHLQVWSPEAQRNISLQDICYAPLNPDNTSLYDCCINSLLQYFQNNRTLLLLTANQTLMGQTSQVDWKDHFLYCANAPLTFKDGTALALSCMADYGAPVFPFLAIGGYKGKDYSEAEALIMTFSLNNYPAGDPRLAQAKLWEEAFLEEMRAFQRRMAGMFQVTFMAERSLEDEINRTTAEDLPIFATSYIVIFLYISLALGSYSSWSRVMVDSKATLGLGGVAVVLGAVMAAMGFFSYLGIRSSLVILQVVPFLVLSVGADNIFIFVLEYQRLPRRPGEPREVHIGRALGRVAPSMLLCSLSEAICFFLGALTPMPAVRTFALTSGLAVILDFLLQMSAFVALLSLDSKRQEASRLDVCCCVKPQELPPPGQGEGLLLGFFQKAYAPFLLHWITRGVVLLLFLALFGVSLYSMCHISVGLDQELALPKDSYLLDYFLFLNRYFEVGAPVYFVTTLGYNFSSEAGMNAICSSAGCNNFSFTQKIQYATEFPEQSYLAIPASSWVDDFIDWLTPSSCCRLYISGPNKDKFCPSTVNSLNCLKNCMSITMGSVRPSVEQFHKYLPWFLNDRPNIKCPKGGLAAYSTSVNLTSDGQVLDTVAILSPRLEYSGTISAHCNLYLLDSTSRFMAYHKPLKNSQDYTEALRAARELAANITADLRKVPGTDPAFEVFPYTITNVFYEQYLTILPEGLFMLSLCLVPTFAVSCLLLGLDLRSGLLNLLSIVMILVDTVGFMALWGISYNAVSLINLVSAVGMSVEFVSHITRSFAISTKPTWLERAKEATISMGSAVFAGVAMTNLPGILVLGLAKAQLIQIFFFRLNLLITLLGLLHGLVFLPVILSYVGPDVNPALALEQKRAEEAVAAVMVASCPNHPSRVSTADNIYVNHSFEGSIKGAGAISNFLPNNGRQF
Nature of the assay: NPC1L1 Binding Assay, human. To be noted: HEK-293 cells expressing human NPC1L1; competition with 250 nM BODIPY-labeled glucuronidated ezetimibe, 4 h at 37° C. The protocol: HEK-293 cells expressing human NPC1L1 were plated into 384-well black/clear plates (BD Biosciences, Bedford Mass.) for binding experiments the following day. Cell growth media (DMEM, 10% fetal calf serum, 1 mg/mL geneticin, 100 Units/mL penicillin) was aspirated. Cell growth media ([…]) containing 250 nM BODIPY-labeled glucuronidated ezetimibe was added to each well. Cell growth media ([…] containing the indicated concentration of compound was then added to the wells unlabeled glucuronidated ezetimibe […]) was used to determine nonspecific binding. The binding reaction was allowed to proceed for 4 h at 37° C. Subsequently the cell growth media was aspired and the cells washed once with PBS. The remaining fluorescent labeled glucuronidated ezetimibe bound to the cells was quantified using a FlexStation plate reader (Molecular Devices, Sunnyvale Calif.) to measure fluorescence intensity. Ki values were determined from competition binding curves (n=4 for each point) using Prism and Activity Base software.

The target in another assay is NPC1L1 (Rattus norvegicus, UniProt Q6T3U3). Nature of the assay: NPC1L1 Binding Assay, rat. The following applies: competition with BODIPY-labeled glucuronidated ezetimibe.

T1 sequence (Q8NER1 whole entry, species assumed): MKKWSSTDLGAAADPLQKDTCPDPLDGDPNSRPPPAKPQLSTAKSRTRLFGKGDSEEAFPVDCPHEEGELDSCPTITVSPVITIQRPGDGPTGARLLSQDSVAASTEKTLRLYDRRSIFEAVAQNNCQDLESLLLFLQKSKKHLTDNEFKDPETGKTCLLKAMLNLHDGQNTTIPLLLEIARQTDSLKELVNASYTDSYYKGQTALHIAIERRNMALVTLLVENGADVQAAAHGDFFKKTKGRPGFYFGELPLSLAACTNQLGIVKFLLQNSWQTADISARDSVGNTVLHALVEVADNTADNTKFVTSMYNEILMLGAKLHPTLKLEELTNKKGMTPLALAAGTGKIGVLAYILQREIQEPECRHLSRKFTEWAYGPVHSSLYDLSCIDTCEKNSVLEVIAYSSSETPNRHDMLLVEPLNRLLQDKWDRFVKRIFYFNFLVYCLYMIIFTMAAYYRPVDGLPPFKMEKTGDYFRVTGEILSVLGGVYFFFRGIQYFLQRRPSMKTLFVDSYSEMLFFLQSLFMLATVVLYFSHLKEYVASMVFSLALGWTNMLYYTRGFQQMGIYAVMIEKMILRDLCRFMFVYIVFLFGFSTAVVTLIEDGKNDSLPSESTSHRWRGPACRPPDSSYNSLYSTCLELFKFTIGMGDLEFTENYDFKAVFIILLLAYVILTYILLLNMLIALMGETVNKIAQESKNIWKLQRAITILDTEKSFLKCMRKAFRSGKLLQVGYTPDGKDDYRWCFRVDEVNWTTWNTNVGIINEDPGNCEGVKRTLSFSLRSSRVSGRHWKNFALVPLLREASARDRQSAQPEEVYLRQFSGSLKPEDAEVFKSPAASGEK

In the case of `O=C(Nc1ccc(C(F)(F)F)cc1)N1CCC2(CC1)C(=O)N(c1ccccc1)C2c1ccccn1` (stereo not drawn), the IC50 on TRPV1 [1] and at TRPV1 [2] was 33 nM throughout.
`CC(C)c1ccc(NC(=O)N2CCC3(CC2)C(=O)N(c2ccccc2)C3c2ccccn2)cc1` (stereo not drawn): the IC50 (commonly the concentration at which inhibition is half-maximal) was 81 nM on TRPV1 [1] and 70 nM at TRPV1 [2].
For the compound `O=C(Nc1ccc(Oc2ccccc2)cc1)N1CCC2(CC1)C(=O)N(c1ccccc1)C2c1ccccn1` (stereo not drawn), the IC50 at TRPV1 [1] amounted to 140 nM; at TRPV1 [2], 259 nM.
On the same counts, the results for `CC(C)c1ccc(NC(=O)N2CCC3(CC2)C(=O)N(c2cncnc2)C3c2ccccn2)cc1` (stereo not drawn) are 252 nM and 301 nM.
Regarding `O=C(Nc1c(F)cccc1F)N1CCC2(CC1)C(=O)N(c1ccccc1)C2c1ccccc1` (stereo not drawn), the Ki – broadly, a dissociation constant, usually derived from enzyme kinetics or from competition with a known ligand – on human NPC1L1 came to 9870 nM; at NPC1L1, 6630 nM.
As for `O=C(Nc1cccc(Cl)c1Cl)N1CCC2(CC1)C(=O)N(c1ccccc1)C2c1ccccc1` (stereo not drawn), the Ki on human NPC1L1 was 6620 nM; at NPC1L1, 4950 nM.
On to `Cc1ccc(C)c(NC(=O)N2CCC3(CC2)C(=O)N(c2ccccc2)C3c2ccccc2)c1` (stereo not drawn), for which the Ki came to 3900 nM at human NPC1L1 and 3500 nM on NPC1L1.
Take `CC(C)c1ccc(NC(=O)N2CCC3(CC2)C(=O)N(c2ccccc2)C3c2ccccc2)cc1` (stereo not drawn) [drawing 426]: the IC50 was found to be 43 nM on TRPV1 [1] and 81 nM at TRPV1 [2].
On the same counts, the results for `CC(C)c1ccc(NC(=O)N2CCC3(CC2)C(=O)N(c2ccccc2)C3c2ccccc2)cc1` (stereo not drawn) [drawing 427] are 99 nM and 138 nM.
Regarding `Cc1cccc(Cl)c1NC(=O)N1CCC2(CC1)C(=O)N(c1ccccc1)C2c1ccccc1` (stereo not drawn) [drawing 434], the Ki at human NPC1L1 is 2320 nM; on NPC1L1, 1170 nM.
The corresponding values for `Cc1c(Cl)cccc1NC(=O)N1CCC2(CC1)C(=O)N(c1ccccc1)C2c1ccccc1` (stereo not drawn) [drawing 435] are 3770 nM and 3620 nM.
On the same counts, the results for `Cc1cccc(Cl)c1NC(=O)N1CCC2(CC1)C(=O)N(c1ccccc1)C2c1ccccc1` (stereo not drawn) [drawing 443] are 1010 nM and 1060 nM.
